We go through 1 compound from patent US12472171B2, “Methods for treating hypercholesterolemia” (BIOGEN MA INC., priority 2020, dated 2025).

Series [1] deals with healthy volunteers. In words: Population PK/PD model (Monolix) of circulating cholesterol versus Compound 1 plasma concentration, from three phase I studies. Details: species or system human. Here is the method: FIG. 2 is a bar graph showing predicted steady-state concentrations of circulating cholesterol levels during treatment with Compound 1 for subject administered placebo, 1 mg, 3 mg, 10 mg, 30 mg or 60 mg per day of Compound 1 at pharmacodynamic steady-state. The predicted concentrations are from simulations based on data from three phase I trials of Compound 1.
Based on these observations, a population PK/PD model was developed using Monolix to describe circulating cholesterol concentration as a function of plasma concentration of Compound 1 and exposure. The model was developed from cholesterol data from the study described above (Study 1) as well as two additional clinical studies (Study 2 and Study 3) in healthy volunteers. In Study 2, thirty healthy volunteers received a single oral dose of Compound 1 with 6 individual participants per cohort receiving 3 mg (Cohort 1), 10 mg (Cohort 2), 30 mg (Cohort 3), 60 mg (Cohort 4), 100 mg (Cohort 5). There were also 9 participants who received placebo in the study. In Study 3, 8 healthy adult volunteers received a single dose of 30 mg of Compound 1.

For series [2], the system named is rat OPCs. In words: Sterol levels (Metabolon HD4) in rat OPC cultures treated with Compound 1. Type of series: cell-based. As to conditions: rat OPC culture. As for the experimental part:
Enriched populations of oligodendrocytes from female Sprague Dawley postnatal day 2 (P2) rats were grown in culture. Briefly, the forebrain was dissected and placed in Hank's buffered salt solution (HBSS) (Life technologies). The tissue was cut into 1 mm fragments and incubated at 37° C. for 15 min in 0.01% trypsin and 10 μg/ml DNase. Dissociated cells were plated on poly-D-lysine (PDL)-coated T75 tissue culture flasks and grown at 37° C. for 10 days in Dulbecco's Modified Eagle Medium (DMEM) with 20% fetal calf serum (Life technologies). Oligodendrocyte precursors (A2B5+) were collected by shaking the flask overnight at 200 rpm at 37° C., resulting in a 95% pure population. Cultures were maintained in a defined growth medium (high glucose DMEM, 0.1% BSA, 50 ug/ml Apo-transferrin, 5 ug/ml insulin, 30 nM sodium selenite, 10 nM biotin and hydrocortisone) with 10 ng/ml fibroblast growth factor/platelet-derived growth factor (FGF/PDGF) (Peprotech) for 2-3 days. For assessing the ability of Compound 1 to promote the differentiation of rat A2B5+ progenitor cells into mature myelin basic protein positive (MBP+) myelinating oligodendrocytes, A2B5+ cells were plated into 10-cm PDL coated culture plates in FGF/PDGF free growth medium supplemented with 10 ng/ml CNTF and 15 nM T3 and were immediately treated for with Compound 1. The cell pellets were collected at 24 hours and 72 hours in culture and stored at −80° C. The cell pellets were subsequently shipped to Metabolon (Morrisville, NC, USA) and maintained at −80° C. during shipping and storage until processed. The cell pellet samples were extracted with methanol under vigorous shaking for 2 min (Glen Mills GenoGrinder 2000) to precipitate protein and dissociate small molecules bound to protein or trapped in the precipitated protein matrix, followed by centrifugation to recover chemically diverse metabolites. The resulting extract were next aliquot and analyzed on Metabolon's HD4 platform. Several types of quality control samples, including recovery standards added prior to extraction, technical replicates from a pool combined from each experimental sample, process and solvent blanks, and spiked a cocktail of QC standards, were applied during sample preparation and analysis for quality assessment and filtering failed samples.

Series [3] relates to healthy volunteers. In words: 28-day once-daily dosing study in healthy volunteers (Study 1), circulating total cholesterol and oxysterols. It counts as in vivo, human. Here is the method: Forty-two healthy volunteers received Compound 1 QD for 28 days (or before early withdrawal), with 6 individual participants per cohort receiving 1 mg (Cohort 1), 3 mg (Cohort 2), 10 mg (Cohort 3), 30 mg (Cohort 4), 60 mg loading dose with 10 mg maintenance dosing (Cohort 5) Compound 1, 60 mg (Cohort 6), or 90 mg loading dose on Day 1 and Day 2 with 30 mg maintenance dosing (Cohort 7). There were also 14 participants who received placebo in the study; 1 participant in Cohort 4 was misdosed on Day 19 and appeared to have received at least one 30 mg dose of Compound 1. The following protocol deviations were reported for participants in Cohorts 1 through 5: they received predose water ad lib (not restricted for 1 hour before and 1 hour after dose) and a meal administered 30 minutes postdose (not 4 hours postdose). A total of 49 participants completed treatment, including 37 participants who received active treatment.
Participants received the first dose of study treatment (Compound 1 or placebo) on Day 1 and continued to receive once-daily study treatment through Day 28. Participants remained in the clinic throughout the dosing period. Participants were discharged on Day 29 after completing all assessments.
Blood was periodically withdrawn from each volunteer and immediately stored at −80° C. For measuring metabolite concentrations in human serum, the samples were centrifuged and the resulting supernatant was used for further analysis.
Free oxysterols were extracted from the samples with methanol using the Biocrates Kit filter plate. The plate was loaded with an internal standard mixture beforehand. The metabolite concentrations were determined by UHPLC-MS/MS with multiple reaction monitoring (MRM) in a positive mode using a SCIEX API 5500 QTRAP® (AB SCIEX, Darmstadt, German) instrument with electrospray ionization (ESI). Data were quantitated using appropriate mass spectrometry software and imported in Biocrates Met/DQ™ software for further analysis.

Regarding `CC[C@H]1CC[C@@H](Oc2ccc3cc(CN4CCC(C(=O)O)CC4)ccc3c2)CC1` [Compound 1, 1-((6-(((1s,4s)-4-ethylcyclohexyl)oxy)naphthalen-2-yl)methyl)piperidine-4-carboxylic acid], the “model-predicted decrease of circulating cholesterol” value in series [1] (60 mg QD, steady state) is “approximately 35%”. Further, in series [1] (after discontinuation of treatment), the “predicted time for circulating cholesterol to return to baseline after discontinuation” value was at most 30 days. Besides, the “steady-state concentration of Compound 1” value in series [1] (daily dose of 60 mg) is “about 3 μg/mL”. Further, the “time of increase to steady-state concentrations of Compound 1 in plasma” value in series [1] (daily dosing, cholesterol reduction predicted over the same time frame) is reported as “approximately 15 days”. Also, the “EC50 for reduction in circulating cholesterol concentration” value in series [1] (plasma concentration of Compound 1, population PK/PD model) is listed as “about 3 μg/mL”. In addition, the “circulating cholesterol concentration in the model by daily dose” value in series [1] (population PK/PD model) is listed as “reduced at all daily doses higher than 10 mg”. Also, in series [2] (24 hours), the “7-DHC versus vehicle control” value is 8.3 folds, the “cholesterol versus vehicle control” value is 0.64 folds and the “desmosterol versus vehicle control” value is 0.44 folds. In series [2] (72 hours), the “7-DHC versus vehicle control” value was 12.86 folds, the “cholesterol versus vehicle control” value was “insignificant change” and the “desmosterol versus vehicle control” value is reported as 0.4 folds. For the same compound, the “accumulation of 7-dehydrocholesterol (7-DHC)” value in series [3] (healthy human volunteers) was “causes accumulation of 7-dehydrocholesterol (7-DHC)”. The “average decrease in total cholesterol” value in series [3] (healthy volunteers, 60 mg dose, Study 1) is “approximately 20%”. Moreover, the “reduction in total circulating cholesterol” value in series [3] (healthy volunteers, QD for 28 days, FIG. 1) is “gradual, time- and dose-dependent reduction in total circulating cholesterol”.
